According to publication PMC9959456, “Multiple-P450 Gene Co-Up-Regulation in the Development of Permethrin Resistance in the House Fly, Musca domestica” (International Journal of Molecular Sciences, 2023):

How the values were obtained:
[1] = molecular target: T1, CYP4S24 (Musca domestica, UniProt T1PEC4); assay: HPLC substrate depletion, P450/CPR Sf9 microsomes; type: biochemical; conditions: 0.2 µM P450, NADPH-regenerating system, 0.25 mM MgCl2, pH 7.4, 30 °C, 120 min
T1 construct: full length, co-expressed with house fly CPR (MOI 10:1) by baculovirus in Sf9 cells; microsomes; with NADPH--cytochrome P450 reductase
T1 sequence (T1PEC4 1-496): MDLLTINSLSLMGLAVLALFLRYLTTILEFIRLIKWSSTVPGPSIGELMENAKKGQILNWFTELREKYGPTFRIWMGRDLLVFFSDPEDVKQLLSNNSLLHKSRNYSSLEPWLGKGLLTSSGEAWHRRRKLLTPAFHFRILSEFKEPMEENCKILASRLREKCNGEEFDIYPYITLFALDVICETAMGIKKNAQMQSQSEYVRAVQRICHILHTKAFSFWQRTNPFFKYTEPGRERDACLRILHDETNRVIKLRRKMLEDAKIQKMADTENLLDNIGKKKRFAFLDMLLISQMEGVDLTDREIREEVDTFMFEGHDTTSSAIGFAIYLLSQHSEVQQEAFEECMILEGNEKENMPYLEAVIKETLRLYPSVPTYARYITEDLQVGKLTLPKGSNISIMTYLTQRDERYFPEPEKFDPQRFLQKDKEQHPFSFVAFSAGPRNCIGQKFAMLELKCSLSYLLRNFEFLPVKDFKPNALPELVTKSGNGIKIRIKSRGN
T1 sequence (Q07994 1-671 partner): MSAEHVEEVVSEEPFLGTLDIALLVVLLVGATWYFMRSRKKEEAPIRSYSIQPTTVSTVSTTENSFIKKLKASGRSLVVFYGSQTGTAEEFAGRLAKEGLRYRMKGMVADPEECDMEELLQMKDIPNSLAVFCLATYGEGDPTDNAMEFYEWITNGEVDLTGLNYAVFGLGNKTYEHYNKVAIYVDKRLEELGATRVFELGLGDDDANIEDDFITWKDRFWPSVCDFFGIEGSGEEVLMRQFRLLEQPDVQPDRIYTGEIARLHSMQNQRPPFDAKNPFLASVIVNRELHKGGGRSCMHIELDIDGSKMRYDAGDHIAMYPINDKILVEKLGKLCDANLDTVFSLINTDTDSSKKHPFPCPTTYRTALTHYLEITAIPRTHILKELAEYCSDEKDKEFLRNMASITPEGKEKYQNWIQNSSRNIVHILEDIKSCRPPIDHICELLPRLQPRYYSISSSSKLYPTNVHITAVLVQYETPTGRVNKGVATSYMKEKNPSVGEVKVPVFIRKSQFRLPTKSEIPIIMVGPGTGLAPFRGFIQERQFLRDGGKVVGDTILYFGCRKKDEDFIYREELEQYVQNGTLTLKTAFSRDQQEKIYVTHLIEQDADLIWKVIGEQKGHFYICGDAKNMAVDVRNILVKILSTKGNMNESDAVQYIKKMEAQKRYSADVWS

[2] = molecular target: T2, CYP6A36 (Musca domestica, UniProt Q06S82); assay: HPLC substrate depletion, P450/CPR Sf9 microsomes; type: biochemical; conditions: 20 µM cis/trans permethrin mixture, 0.2 µM P450, NADPH-regenerating system, 0.25 mM MgCl2, pH 7.4, 30 °C, 120 min
T2 construct: full length, co-expressed with house fly CPR (MOI 10:1) by baculovirus in Sf9 cells; microsomes; with NADPH--cytochrome P450 reductase
T2 sequence (Q06S82 1-507): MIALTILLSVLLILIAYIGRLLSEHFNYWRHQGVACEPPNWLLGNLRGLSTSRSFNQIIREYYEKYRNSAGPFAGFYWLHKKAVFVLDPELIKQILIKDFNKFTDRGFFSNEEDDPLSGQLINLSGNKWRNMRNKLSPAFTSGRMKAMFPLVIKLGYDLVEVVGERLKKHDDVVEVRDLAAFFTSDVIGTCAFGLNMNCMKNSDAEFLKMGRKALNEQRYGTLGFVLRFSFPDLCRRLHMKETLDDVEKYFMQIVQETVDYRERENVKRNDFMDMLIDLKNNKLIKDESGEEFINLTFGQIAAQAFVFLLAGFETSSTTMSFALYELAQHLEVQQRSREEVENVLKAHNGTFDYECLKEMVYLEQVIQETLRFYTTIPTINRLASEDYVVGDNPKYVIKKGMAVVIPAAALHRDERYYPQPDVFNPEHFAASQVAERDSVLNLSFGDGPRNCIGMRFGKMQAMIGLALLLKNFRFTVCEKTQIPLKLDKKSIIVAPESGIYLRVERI
T2 sequence (Q07994 1-671 partner): T1 sequence (Q07994 1-671 partner)

SMILES: OCc1cccc(Oc2ccccc2)c1 [PBalc]
- HPLC substrate depletion, P450/CPR Sf9 microsomes ([1]; 20 µM PBalc): CYP4S24 exhibiting the highest ability to metabolize both PBalc and PBald

SMILES: CC1(C)C(C=C(Cl)Cl)C1C(=O)OCc1cccc(Oc2ccccc2)c1 (stereo not drawn) [trans-permethrin]
- HPLC substrate depletion, P450/CPR Sf9 microsomes [2]: CYP6A36 showed the highest activity toward both trans- and cis-permethrin

SMILES: O=Cc1cccc(Oc2ccccc2)c1 [PBald]
- HPLC substrate depletion, P450/CPR Sf9 microsomes ([1]; 20 µM PBald): CYP4S24 exhibiting the highest ability to metabolize both PBalc and PBald
